This assay concerns the target T1, ROS1 (Homo sapiens, UniProt P08922).
T1 construct: purchased Thermo Fisher Scientific (Life Technologies) SelectScreen
The experiment in a line: SelectScreen Z'LYTE. In kind it is biochemical. In a few lines:
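SelectScreen broad panel; activity (Z'LYTE, Adapta) plus binding formats. ATP: Km app for CSF1R Z'LYTE; 10 for CAMK1 Adapta. Readout = % per kinase.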

Inhibition data for one molecule are collected here from article PMC6934184, “Selective DNA-PKcs inhibition extends the therapeutic index of localized radiotherapy and chemotherapy” (The Journal of Clinical Investigation, 2019).

T1 sequence (P08922 28-2347): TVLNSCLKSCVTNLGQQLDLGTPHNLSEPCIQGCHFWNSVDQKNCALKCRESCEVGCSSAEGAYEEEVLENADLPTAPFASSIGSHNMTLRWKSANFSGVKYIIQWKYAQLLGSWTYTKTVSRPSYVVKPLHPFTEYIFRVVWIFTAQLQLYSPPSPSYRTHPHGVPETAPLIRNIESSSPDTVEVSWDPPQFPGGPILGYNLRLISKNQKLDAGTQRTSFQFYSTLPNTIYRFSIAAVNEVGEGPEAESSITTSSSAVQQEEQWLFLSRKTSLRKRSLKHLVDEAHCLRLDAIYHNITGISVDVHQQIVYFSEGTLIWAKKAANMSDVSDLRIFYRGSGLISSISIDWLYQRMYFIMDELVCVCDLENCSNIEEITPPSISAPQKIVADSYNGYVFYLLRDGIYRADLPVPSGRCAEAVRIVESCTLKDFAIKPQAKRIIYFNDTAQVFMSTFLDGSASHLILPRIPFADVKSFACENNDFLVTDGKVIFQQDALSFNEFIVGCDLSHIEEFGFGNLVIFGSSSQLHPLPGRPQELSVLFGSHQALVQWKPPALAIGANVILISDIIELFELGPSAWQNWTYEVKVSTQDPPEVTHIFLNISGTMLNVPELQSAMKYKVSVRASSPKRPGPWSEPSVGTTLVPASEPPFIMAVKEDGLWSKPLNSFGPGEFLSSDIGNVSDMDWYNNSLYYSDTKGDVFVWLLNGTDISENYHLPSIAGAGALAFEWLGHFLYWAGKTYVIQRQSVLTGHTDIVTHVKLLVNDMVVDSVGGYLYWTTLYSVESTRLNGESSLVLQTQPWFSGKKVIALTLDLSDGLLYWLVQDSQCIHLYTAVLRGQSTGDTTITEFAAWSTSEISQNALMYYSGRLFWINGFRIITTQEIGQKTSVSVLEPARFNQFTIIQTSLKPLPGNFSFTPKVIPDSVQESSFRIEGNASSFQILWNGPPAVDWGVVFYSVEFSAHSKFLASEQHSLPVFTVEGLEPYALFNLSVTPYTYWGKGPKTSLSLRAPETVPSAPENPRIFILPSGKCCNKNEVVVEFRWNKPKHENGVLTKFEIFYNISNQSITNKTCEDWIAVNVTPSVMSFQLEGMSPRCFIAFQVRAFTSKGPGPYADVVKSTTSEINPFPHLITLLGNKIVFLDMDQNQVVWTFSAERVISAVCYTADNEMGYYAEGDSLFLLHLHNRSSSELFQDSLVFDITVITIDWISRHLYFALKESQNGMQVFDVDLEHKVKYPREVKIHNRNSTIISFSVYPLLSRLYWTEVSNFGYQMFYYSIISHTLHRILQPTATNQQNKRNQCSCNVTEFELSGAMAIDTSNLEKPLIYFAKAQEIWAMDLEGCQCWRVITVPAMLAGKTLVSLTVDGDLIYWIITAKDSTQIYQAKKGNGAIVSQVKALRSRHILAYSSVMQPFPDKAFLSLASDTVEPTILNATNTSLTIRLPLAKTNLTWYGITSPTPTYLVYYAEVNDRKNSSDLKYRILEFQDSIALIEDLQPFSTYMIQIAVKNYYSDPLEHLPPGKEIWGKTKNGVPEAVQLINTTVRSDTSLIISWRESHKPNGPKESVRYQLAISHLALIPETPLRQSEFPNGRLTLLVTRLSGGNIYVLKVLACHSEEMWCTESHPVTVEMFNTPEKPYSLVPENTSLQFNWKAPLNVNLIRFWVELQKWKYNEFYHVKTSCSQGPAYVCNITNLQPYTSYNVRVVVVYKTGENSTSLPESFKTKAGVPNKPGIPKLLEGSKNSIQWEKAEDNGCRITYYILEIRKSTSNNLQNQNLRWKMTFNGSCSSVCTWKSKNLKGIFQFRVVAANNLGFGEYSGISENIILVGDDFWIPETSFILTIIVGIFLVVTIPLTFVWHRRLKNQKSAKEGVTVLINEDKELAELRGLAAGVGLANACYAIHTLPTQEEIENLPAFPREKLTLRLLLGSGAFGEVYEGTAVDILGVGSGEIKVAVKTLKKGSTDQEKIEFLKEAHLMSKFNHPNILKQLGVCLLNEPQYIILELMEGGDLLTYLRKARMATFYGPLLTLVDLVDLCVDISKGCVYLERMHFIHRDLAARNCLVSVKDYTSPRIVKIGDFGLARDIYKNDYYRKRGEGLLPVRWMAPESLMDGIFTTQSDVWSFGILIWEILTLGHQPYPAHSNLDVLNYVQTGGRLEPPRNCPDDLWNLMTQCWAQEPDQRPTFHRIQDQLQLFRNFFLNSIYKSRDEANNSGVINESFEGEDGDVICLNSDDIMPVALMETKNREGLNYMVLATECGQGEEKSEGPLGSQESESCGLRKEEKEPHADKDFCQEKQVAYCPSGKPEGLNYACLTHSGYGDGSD

With `CN(C(=O)CN1CCOCC1)c1ccc2sc3c(-c4cccc5c(=O)cc(N6CC7CCC(C6)O7)oc45)cccc3c2c1` [NU5455], the inhibition at 1 µM stood at 8%.
